Measured values from US20260256925A1, “INDAZOLE DERIVATIVES AS ESTROGEN RECEPTOR DEGRADERS” (REGENTS OF THE UNIVERSITY OF MICHIGAN, priority 2022, published 2026).

Assays:
Type in all cases: cell-based
ER [1] = biological target: T1, ER (Homo sapiens, UniProt P03372); test: Western blot analysis (compounds B1-B126); conditions: ER degradation, read-out: Traditional Western Degradation potency (DC50)
T1 construct: endogenous in cells; probably T47D or MCF-7
T1 sequence (P03372 1-595): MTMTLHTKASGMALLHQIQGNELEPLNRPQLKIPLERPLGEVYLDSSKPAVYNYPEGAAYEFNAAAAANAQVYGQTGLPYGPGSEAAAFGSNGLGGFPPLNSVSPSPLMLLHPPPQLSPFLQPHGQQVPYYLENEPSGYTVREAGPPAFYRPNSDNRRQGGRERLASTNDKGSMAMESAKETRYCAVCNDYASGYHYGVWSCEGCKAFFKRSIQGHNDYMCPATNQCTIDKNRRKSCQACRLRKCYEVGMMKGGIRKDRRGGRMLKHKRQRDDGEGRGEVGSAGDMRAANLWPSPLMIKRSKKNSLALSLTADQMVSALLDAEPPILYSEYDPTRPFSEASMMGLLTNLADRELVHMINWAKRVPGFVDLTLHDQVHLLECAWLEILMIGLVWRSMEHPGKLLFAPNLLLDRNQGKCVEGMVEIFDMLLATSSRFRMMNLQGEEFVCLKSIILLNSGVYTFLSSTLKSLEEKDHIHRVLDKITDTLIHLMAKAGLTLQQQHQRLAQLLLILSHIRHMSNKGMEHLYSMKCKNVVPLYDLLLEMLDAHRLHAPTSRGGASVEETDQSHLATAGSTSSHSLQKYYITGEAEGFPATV
Procedure: Western Blot Analysis. The cells that are treated with the compounds are lysed in Radioimmunoprecipitation Assay Protein Lysis and Extraction Buffer (e.g., 25 mmol/L Tris.HCl, pH 7.6, 150 mmol/L NaCl, 1% Nonidet P-40, 1% sodium deoxycholate, and 0.1% sodium dodecyl sulfate) containing proteinase inhibitor cocktail. Equal amounts of total protein are electrophoresed through 10% SDS-polyacrylamide gels after determination of protein concentration by BCA assay. The separated protein bands are transferred onto PVDF membranes and blotted against different antibodies. The blots are scanned, and the band intensities are quantified (e.g., by using GelQuant.NET software provided by biochemlabsolutions.com). The relative mean intensity of target proteins is expressed after normalization to the intensity of glyceraldehyde-3-phosphate dehydrogenase bands.
Western Blot Analysis. Western blot analysis was performed essentially as described previously. The cells treated with indicated compounds were lysed in Radioimmunoprecipitation Assay Protein Lysis and Extraction Buffer (25 mmol/L Tris.HCl, pH 7.6, 150 mmol/L NaCl, 1% Nonidet P-40, 1% sodium deoxycholate, and 0.1% sodium dodecyl sulfate) containing proteinase inhibitor cocktail (Roche Diagnostics, Mannheim, Germany). Equal amounts of total protein were electrophoresed through 10% SDS-polyacrylamide gels after determination of protein concentration by BCA assay (Fisher Scientific, Pittsburgh, PA). The separated protein bands were transferred onto PVDF membranes (GE Healthcare Life Sciences, Marlborough, MA) and blotted against different antibodies, as indicated. The blots were scanned, and the band intensities were quantified using GelQuant.NET software provided by biochemlabsolutions.com. The relative mean intensity of target proteins was expressed after normalization to the intensity of glyceraldehyde-3-phosphate dehydrogenase bands.

ER [2] = biological target: T1, ER; test: In-cell Western (ICW) ER degradation assay in T47D cells; conditions: T47D cells, 16 hrs
Procedure: (§1) ERa degradative activity of compounds can be assessed in MCF-7 and T47D Cells. MCF-7 and T47D cell are seeded and are subsequently treated with the compounds at certain concentrations (e.g., 0.02 to 300 nM). DMSO can be used as vehicle control. Cells are fixed and are blocked with Intercept (PBS) Blocking Buffer (e.g., Li—COR, Odyssey Blocking Buffer), and are stained with ER (e.g., 1:500, Cell signaling) primary antibody for overnight at cold room. Secondary Antibody (e.g., IRDye 800CW Goat anti-Rabbit IgG) and CellTag 700 Stain are added in Intercept (PBS) Blocking Buffer. Finally, cell plate is placed in incubator to dry. Image and signal are captured on Odyssey® DLx Imaging System.
(§2) In-cell Western (ICW) assays in MCF-7 and T47D cell lines.
(§3) Procedures for ICW assays
(§4) In vitro Assay: MCF-7 and T47D ICW assay
(§5) Day 3: After 16 hrs of compounds treatment, cells were fixed by 4% PFA and permeabilized with elution buffer (0.1% Triton X-100 in 1% PBS Solution). Subsequently, cells were blocked with Intercept (PBS) Blocking Buffer (Li—COR, Odyssey Blocking Buffer), and were stained with ER (1:500, Cell signaling) primary antibody for overnight at cold room.
(§6) Day 4: Remove the buffer, add IRDye 800CW Goat anti-Rabbit IgG Secondary Antibody (1:2000) and CellTag 700 Stain (1:500) in Intercept (PBS) Blocking Buffer. Finally, cell plate is placed in incubator to dry. Image and signal were captured on Odyssey® DLx Imaging System.

ER [3] = biological target: T1, ER; test: In-cell Western (ICW) ER degradation assay in MCF-7 cells; conditions: 16 hrs
Procedure: as §1, §2, §3, §4, §5, §6

SMILES | DC50 (ER [1]) [µM] | other results
C[C@@H]1Cc2c(ccc3[nH]ncc23)[C@@H](c2c(F)cc([C@H]3CC[C@H](C(=O)N4CCC(N5Cc6cc7c(cc6C5)C(=O)N(C5CCC(=O)NC5=O)C7=O)CC4)CC3)cc2F)N1CC(F)F (stereo partly drawn) [Compound B2, 6-(1-((1S,4r)-4-(4-((6S,8R)-7-(2,2-difluoroethyl)-8-methyl-6,7,8,9-tetrahydro-3H-pyrazolo[4,3-f]isoquinolin-6-yl)-3,5-difluorophenyl)cyclohexane-1-carbonyl)pipcridin-4-yl)-2-(2,6-dioxopiperidin-3-yl)-6,7-dihydropyrrolo[3,4-f]isoindole-1,3(2H,5H)-dione] | < 0.01 | 
C[C@@H]1Cc2c(ccc3[nH]ncc23)[C@@H](c2ccc(N3CCC4(CC3)CC(CN3CCN5c6cc7c(cc6OC[C@@H]5C3)C(=O)N([C@@H]3CCC(=O)NC3=O)C7)C4)cn2)N1CC1(F)CC1 [Compound A12, (R)-3-((S)-3-((7-(6-((6S,8R)-7-((1-fluorocyclopropyl)methyl)-8-methyl-6,7,8,9-tetrahydro-3H-pyrazolo[4,3-f]isoquinolin-6-yl)pyridin-3-yl)-7-azaspiro[3.5]nonan-2-yl)methyl)-8-oxo-1,2,3,4,4a,5,8,10-octahydro-9H-pyrazino[1′,2′: 4,5][1,4]oxazino[2,3-f]isoindol-9-yl)piperidine-2,6-dione] |  | DC50 (ER [2]): < 0.001 µM; Dmax (ER [2]; T47D, read-out: ER T47D ICW Dmax (%)): > 75%; Dmax (ER [3]; MCF7, MCF-7 cells, read-out: ER MCF7 ICW Dmax (%)): > 75%; DC50 (ER [3]; MCF-7 cells, read-out: ER MCF7 ICW DC50): < 0.001 µM
C[C@@H]1Cc2c(ccc3[nH]ncc23)[C@@H](c2c(F)cc([C@H]3CC[C@H](C(=O)N4CC(CN5Cc6cc7c(cc6C5)C(=O)N(C5CCC(=O)NC5=O)C7=O)C4)CC3)cc2F)N1CC(F)F (stereo partly drawn) [Compound B3, 6-((1-((1S,4r)-4-(4-((6S,8R)-7-(2,2-difluoroethyl)-8-methyl-6,7,8,9-tetrahydro-3H-pyrazolo[4,3-f]isoquinolin-6-yl)-3,5-difluorophenyl)cyclohexane-1-carbonyl)azetidin-3-yl)methyl)-2-(2,6-dioxopiperidin-3-yl)-6,7-dihydropyrrolo[3,4-f]isoindole-1,3(2H,5H)-dione] | > 0.1 | 
C[C@@H]1Cc2c(ccc3[nH]ncc23)[C@@H](c2c(F)cc([C@H]3CC[C@@H](C(=O)N4CCC(N5Cc6cc7c(cc6C5)C(=O)N(C5CCC(=O)NC5=O)C7=O)CC4)CC3)cc2F)N1CC(F)F (stereo partly drawn) [Compound B1, 6-(1-((1R,4s)-4-(4-((6S,8R)-7-(2,2-difluoroethyl)-8-methyl-6,7,8,9-tetrahydro-3H-pyrazolo[4,3-f]isoquinolin-6-yl)-3,5-difluorophenyl)cyclohexane-1-carbonyl)piperidin-4-yl)-2-(2,6-dioxopiperidin-3-yl)-6,7-dihydropyrrolo[3,4-f]isoindole-1,3(2H,5H)-dione] | < 0.01 | 

The next lines start with results.

DC50 (ER [1]) [µM] | SMILES | other results
< 0.01 | C[C@@H]1Cc2c(ccc3[nH]ncc23)[C@@H](c2c(F)cc(N3CCC4(CC3)CN(C(=O)CN3Cc5cc6c(cc5C3)C(=O)N(C3CCC(=O)NC3=O)C6=O)C4)cc2F)N1CC(F)F (stereo partly drawn) [Compound B4, 6-(2-(7-(4-((6S,8R)-7-(2,2-difluoroethyl)-8-methyl-6,7,8,9-tetrahydro-3H-pyrazolo[4,3-f]isoquinolin-6-yl)-3,5-difluorophenyl)-2,7-diazaspiro[3.5]nonan-2-yl)-2-oxoethyl)-2-(2,6-dioxopiperidin-3-yl)-6,7-dihydropyrrolo[3,4-f]isoindole-1,3(2H,5H)-dione] | 
< 0.01 | C[C@@H]1Cc2c(ccc3[nH]ncc23)[C@@H](c2c(F)cc(N3CC4(CCN(C(=O)CN5Cc6cc7c(cc6C5)C(=O)N(C5CCC(=O)NC5=O)C7=O)CC4)C3)cc2F)N1CC(F)F (stereo partly drawn) [Compound B13, 6-(2-(2-(4-((6S,8R)-7-(2,2-difluoroethyl)-8-methyl-6,7,8,9-tetrahydro-3H-pyrazolo[4,3-f]isoquinolin-6-yl)-3,5-difluorophenyl)-2,7-diazaspiro[3.5]nonan-7-yl)-2-oxoethyl)-2-(2,6-dioxopiperidin-3-yl)-6,7-dihydropyrrolo[3,4-f]isoindole-1,3(2H,5H)-dione] | 
0.01 to 0.1 | C[C@@H]1Cc2c(ccc3[nH]ncc23)[C@@H](c2c(F)cc(N3CCC(CN4CCN5c6cc7c(cc6N(C)C[C@@H]5C4)C(=O)N(C4CCC(=O)NC4=O)C7)CC3)cc2F)N1CC(F)F (stereo partly drawn) [Compound B18, 3-((S)-3-((1-(4-((6S,8R)-7-(2,2-difluoroethyl)-8-methyl-6,7,8,9-tetrahydro-3H-pyrazolo[4,3-f]isoquinolin-6-yl)-3,5-difluorophenyl)piperidin-4-yl)methyl)-6-methyl-8-oxo-2,3,4,4a,5,6,8,10-octahydropyrazino[1,2-a]pyrrolo[3,4-g]quinoxalin-9(1H)-yl)piperidine-2,6-dione] | 
0.01 to 0.1 | C[C@@H]1Cc2c(ccc3[nH]ncc23)[C@@H](c2c(F)cc(N3CCC4(CCN(CC(=O)N5Cc6cc7c(cc6C5)C(=O)N(C5CCC(=O)NC5=O)C7=O)CC4)CC3)cc2F)N1CC(F)F (stereo partly drawn) [Compound B5, 6-(2-(9-(4-((6S,8R)-7-(2,2-difluoroethyl)-8-methyl-6,7,8,9-tetrahydro-3H-pyrazolo[4,3-f]isoquinolin-6-yl)-3,5-difluorophenyl)-3,9-diazaspiro[5.5]undecan-3-yl)acetyl)-2-(2,6-dioxopiperidin-3-yl)-6,7-dihydropyrrolo[3,4-f]isoindole-1,3(2H,5H)-dione] | 
< 0.01 | COc1c2c(cc3c1C(=O)N(C1CCC(=O)NC1=O)C3=O)CN(CC(=O)N1CCC3(CC1)CCN(c1cc(F)c([C@@H]4c5ccc6[nH]ncc6c5C[C@@H](C)N4CC(F)F)c(F)c1)CC3)C2 (stereo partly drawn) [Compound B17, 6-(2-(9-(4-((6S,8R)-7-(2,2-difluoroethyl)-8-methyl-6,7,8,9-tetrahydro-3H-pyrazolo[4,3-f]isoquinolin-6-yl)-3,5-diazaspiro[5.5]undecan-3-yl)-2-difluorophenyl)-3,9-oxoethyl)-2-(2,6-dioxopiperidin-3-yl)-4-methoxy-6,7-dihydropyrrolo[3,4-f]isoindole-1,3(2H,5H)-dione] | 
> 0.1 | C[C@@H]1Cc2c(ccc3[nH]ncc23)[C@@H](c2c(F)cc(N3CCC(C(=O)N4C5CCC4CC(N4Cc6cc7c(cc6C4)C(=O)N(C4CCC(=O)NC4=O)C7=O)C5)CC3)cc2F)N1CC(F)F (stereo partly drawn) [Compound B103, 6-(8-(1-(4-((6S,8R)-7-(2,2-difluoroethyl)-8-methyl-6,7,8,9-tetrahydro-3H-pyrazolo[4,3-f]isoquinolin-6-yl)-3,5-difluorophenyl)piperidine-4-carbonyl)-8-azabicyclo [3.2.1]octan-3-yl)-2-(2,6-dioxopiperidin-3-yl)-6,7-dihydropyrrolo [3,4-f]isoindole-1,3(2H,5H)-dione] | 
